BindingDB's records for doi:10.1021/jm030905y (Vrije Universiteit, 2003)

Molecular target: Histamine H4 receptor (Homo sapiens, UniProt Q9H3N8)
Experiment: Inhibitory activity measured by [3H]- N alpha- methyl-histamine binding to membranes of SK-N-MC cells expressing the human Histamine H4 receptor

Chain of Histamine H4 receptor (Q9H3N8 whole entry): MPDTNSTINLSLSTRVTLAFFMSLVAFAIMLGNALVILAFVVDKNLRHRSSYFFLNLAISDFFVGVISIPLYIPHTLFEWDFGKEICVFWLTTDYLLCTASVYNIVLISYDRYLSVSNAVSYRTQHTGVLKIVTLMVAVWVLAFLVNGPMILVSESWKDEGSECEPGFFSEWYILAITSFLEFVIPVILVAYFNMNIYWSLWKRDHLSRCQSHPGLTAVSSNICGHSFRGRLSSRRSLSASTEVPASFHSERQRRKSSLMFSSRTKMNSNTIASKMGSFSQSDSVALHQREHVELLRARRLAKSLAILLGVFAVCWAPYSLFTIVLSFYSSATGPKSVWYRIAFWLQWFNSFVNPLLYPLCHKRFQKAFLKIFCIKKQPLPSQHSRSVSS

Row | SMILES | Ki [nM]
1 | C[C@@H](N)Cc1c[nH]cn1 [CHEBI:73337] | 239
2 | NCCCc1c[nH]cn1 [Homohistamine] | 34.7
